Source: patent publication US20080160033A1, “Novel Screening Method” (Takeda Pharmaceutical Company Limited, priority 2003, published 2008)

Assays:
human 14273 [1] = target: T1, human 14273 (Homo sapiens, UniProt Q5NUL3); experiment: Effects of fatty acids on cAMP production in human 14273-expressed CHO cells; type: cell-based; details: in the presence of forskolin (2 μM); fatty acid 30 μM (FIG. 9); not observed in control CHO cells without human 14273
T1 construct: expressed in transfected cells; host or cells: CHO-K1, transient transfection (Lipofectamine) with the pAKKO-111-based expression vector
T1 sequence (Q5NUL3 1-361): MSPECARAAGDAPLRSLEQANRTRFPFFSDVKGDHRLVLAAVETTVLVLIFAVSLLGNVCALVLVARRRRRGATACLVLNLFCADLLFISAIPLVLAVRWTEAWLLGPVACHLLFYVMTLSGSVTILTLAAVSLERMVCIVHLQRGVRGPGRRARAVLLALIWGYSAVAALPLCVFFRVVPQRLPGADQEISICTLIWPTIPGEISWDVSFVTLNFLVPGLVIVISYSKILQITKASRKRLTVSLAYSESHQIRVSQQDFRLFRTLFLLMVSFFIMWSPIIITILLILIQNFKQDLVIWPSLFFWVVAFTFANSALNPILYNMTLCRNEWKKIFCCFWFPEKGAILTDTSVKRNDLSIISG
Protocol: After the reaction, the cells were lysed in accordance with the formulation of cAMP Screen (ABI) and the intracellular cAMP level was assayed.

AtT-20 cells = experiment: Suppression of CRF-induced ACTH secretion from AtT-20 cells; details: 10 nM CRF, 90 minutes; fatty acid with BSA
[2] = tested on: mouse 14273-GFP fused protein; experiment: Suppression of expression of mouse 14273-GFP fused protein by siRNA in CHO cells (enzyme immunoassay); type: cell-based; details: siRNA 20 nM cotransfected to CHO cells, incubation for a day; absorbance at 450 nm
Protocol: After the culture supernatant was discarded and the cells were washed with HBSS (Invitrogen), the cells were fixed with 0.01% glutaraldehyde (Wako Pure Chemical) for 5 minutes, followed by blocking with 2% BSA-containing PBS (Takara Shuzo). Anti-GFP monoclonal antibody 3E6 (Nippon Gene) diluted to 500-fold was added to the cells. After incubation at room temperature for 2 hours, the cells were washed and HRP-labeled anti-mouse IgG antibody (ICN) diluted to 500-fold was added thereto, followed by incubation at room temperature for 2 hours. After washing, TMB microwell peroxidase substrate (Funakoshi) was added to the cells. After incubation for 30 minutes, sulfuric acid was added to discontinue the color-forming reaction and absorbance was measured at 450 nm.

3T3-L1 cells = experiment: Lipolysis (glycerol production) in 3T3-L1 adipose differentiation cells stimulated with isoproterenol; type: cell-based, mouse; details: 1×10^−9 M isoproterenol plus fatty acid, 2 hours; differentiated 3T3-L1 cells
Protocol: Effects on lipolysis were examined using mouse fibroblast cell line 3T3-L1 cells capable of differentiating into adipocytes. […] The 3T3-L1 cells were plated on a plate and incubated to become confluent. The cells were then treated for 48 hours in the aforesaid medium containing 10 μg/ml of insulin, 0.5 mM 3-isobutyl-1-methylxanthine (IBMX), 2.5 μM dexamethasone to induce differentiation into adipose. Incubation was continued for further 11 days. After the 3T3-L1 cells were differentiated into adipose, a change in the amount of glycerol produced by lipolysis was assayed. After the cells were washed with modified Krebs-Ringer buffer, 1×10^−9 M isoproterenol was added to the cell and simultaneously a fatty acid was added thereto, followed by treatment for 2 hours. The supernatant was then recovered. The glycerol content in the supernatant was determined using Free Glycerol Determination Kit (Sigma).

mouse 14273 = target: T2, mouse 14273 (Mus musculus, UniProt Q7TMA4); experiment: Change in intracellular calcium level (FLIPR) in CHO-K1 cells transiently expressing mouse 14273; type: cell-based; details: 30 μM fatty acid (FIG. 1-5); mouse 14273-expressed CHO-K1 cells; no response in expression vector alone-transfected control cells
T2 construct: expressed in transfected cells; host or cells: CHO-K1, transient transfection (Lipofectamine) with the pAKKO-111-based expression vector
T2 sequence (Q7TMA4 1-361): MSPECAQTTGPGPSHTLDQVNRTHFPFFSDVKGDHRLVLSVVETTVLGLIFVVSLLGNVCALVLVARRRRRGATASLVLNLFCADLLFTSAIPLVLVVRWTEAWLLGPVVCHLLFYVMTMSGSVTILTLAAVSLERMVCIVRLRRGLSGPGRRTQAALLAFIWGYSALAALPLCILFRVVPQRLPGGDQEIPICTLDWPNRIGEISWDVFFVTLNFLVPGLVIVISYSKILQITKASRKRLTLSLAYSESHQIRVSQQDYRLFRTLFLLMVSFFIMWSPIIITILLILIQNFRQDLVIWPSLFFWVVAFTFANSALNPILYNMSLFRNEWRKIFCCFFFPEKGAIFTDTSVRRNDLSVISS
Protocol: (§1) CHO-K1 cells were incubated in Ham F-12 medium (Invitrogen) containing […] calf fetal serum, unless otherwise indicated. On the day before transfection, the cells were plated in 4.5×10^5/10 cm^2 and incubated at 37° C., for 15 hours or longer in a CO2 incubator adjusted to a 5% CO2 concentration. Transfection was carried out by a modification of the procedure described in the protocol attached to the reagent, using Lipofectamine reagent (Invitrogen). Where a 6-well plate was used for the incubator, the procedure was performed as follows. First, 2 tubes each having a 1.5 ml volume were prepared and 100 μl each of Opti-MEM-1 medium (Invitrogen) were dispensed in each tube. Next, after 1 μg of the expression vector was charged in one tube and in another tube 6 μl of the Lipofectamine reagent was charged, they were mixed and settled at room temperature for 20 minutes. A mixture for transfection of The resulting solution was added with 800 μl of Opti-MEM-1 medium and the resulting mixture for transfection was added to CHO-K1 cells previously washed with Opti-MEM-1 medium, followed by incubation in a CO2 incubator for 6 hours. The cells after incubation were rinsed with PBS (Invitrogen), then scraped off using 0.05% trypsin-EDTA solution (Invitrogen) and recovered by centrifugation. The cells collected were counted and diluted to contain 5×10^4 cells per 100 μl of the medium. The dilution was dispensed in a black walled 96-well plate (Costar) at a density of 100 μl/well, followed by incubation overnight in a CO2 incubator. Various samples were added to the CHO-K1 cells, which transiently expressed the receptor by the transfection procedure described above, and a change in intracellular calcium level was measured using FLIPR (Molecular Device). To measure the change in intracellular calcium level on FILPR; the cells were pretreated as follows. First, an assay buffer was prepared to add fluorescent dye Fluo3-AM (DOJIN) to the cells, or to wash the cells immediately before the FLIPR assay. A solution was prepared by adding 20 ml of 1M HEPES (pH 7.4) (DOJIN) to 1000 ml of HBSS (Invitrogen) (hereinafter, HBSS/HEPES solution). After 710 mg of probenecid (Sigma) was dissolved in 5 nil of 1N NaOH, 5 ml of the HBSS/HEPES solution was further added to the solution and the two solutions were mixed with each other. Then, 10 ml of the solution mixture was added to the HBSS/HEPES solution and the resulting solution was used as the assay buffer. Next, 50 μg of Fluo3-AM was added to 21 μl of DMSO (DOJIN) and an equal volume of 20% pluronic acid (Molecular Probes) was added thereto, followed by mixing them. […] Following the pretreatment above, a change in intracellular calcium level was determined with FLIPR, after various test samples were added.

human 14273 [3] = target: T1, human 14273; experiment: Change in intracellular calcium level (FLIPR) in CHO-K1 cells transiently expressing human 14273; type: cell-based; details: 30 μM fatty acid (FIG. 1-5); human 14273-expressed CHO-K1 cells; no response in expression vector alone-transfected control cells
Protocol: as §1

Molecule	cAMP production suppressing activity (human 14273 [1])	suppression of ACTH secretion induced by CRF (AtT-20 cells)	change in intracellular calcium level (mouse 14273)	change in intracellular calcium level (human 14273 [3])	other results
CCCC(=O)O [butyric acid]	did not show any suppressing activity	did not show any significant suppression	–	–	–
m14i561: mouse 14273-specific siRNA; sense strand SEQ ID NO: 21, antisense strand SEQ ID NO: 22 (sense GGACCAGGAAAUUCCGAUUNN; antisense NNCCUGGUCCUUUAAGGCUAA; chemistry not fully specified; one strand is listed 3' to 5')	–	–	–	–	suppression of the expression level of pAKKO-14273-GFP [2]: 97%
CC/C=C\C/C=C\C/C=C\CCCCCCCC(=O)O [α-linoleic acid]	–	suppression of ACTH secretion induced by CRF was observed more significantly	–	–	–
CCCCC/C=C\C/C=C\CCCCCCCC(=O)OC [methyl linoleate]	–	–	–	–	glycerol production increased by isoproterenol stimulation (lipolysis) (3T3-L1 cells): such an activity was not observed
CCCCCC/C=C\CCCCCCCC(=O)O [Palmitoleic acid]	–	–	specifically responded (increased the intracellular calcium level)	specifically responded (increased the intracellular calcium level)	–
CCCCC/C=C\C/C=C\C/C=C\CCCCC(=O)O [γ-linolenic acid]	showed the cAMP production suppressing activity	suppression of ACTH secretion induced by CRF was observed more significantly	specifically responded (increased the intracellular calcium level)	specifically responded (increased the intracellular calcium level)	glycerol production increased by isoproterenol stimulation (lipolysis) (3T3-L1 cells): resulted in lowering the glycerol production
CCCCC/C=C\C/C=C\CCCCCCCC(=O)O [linoleic acid]	showed the cAMP production suppressing activity	–	specifically responded (increased the intracellular calcium level)	specifically responded (increased the intracellular calcium level)	–
CCCCCCCC/C=C\CCCCCCCC(=O)O [oleic acid]	showed the cAMP production suppressing activity	–	–	–	–
CCCCC/C=C\C/C=C\C/C=C\C/C=C\CCCC(=O)O [arachidonic acid]	–	–	specifically responded (increased the intracellular calcium level)	specifically responded (increased the intracellular calcium level)	–
